How the values were obtained:
[1] = system: ARPE-19 cells; test: Creatine prodrug uptake and d3-creatine release in ARPE-19 cells (Table 4A); type: cell-based, human; settings: 50 μM, 6 h, cytosol fraction, corrected for total protein
Experimental: At the end of the incubation, supernatant will be collected from each well to assess prodrug recovery. Cells are then washed 3× with PBS. Plates, prodrugs in supernatant, prodrugs in serum-free medium are stored at −80° C. until harvest (within 5 days). On the day of extraction, 130 uL of lysis buffer (10 mM Tris pH 7.4) with EDTA-free protease inhibitors is added to each well and cells are removed using a cell scraper. Lysates are further homogenized using a handheld pestle and then centrifuged at 16,000 g, […], for 10 minutes to collect cytosol fraction. Pellets will be stored at −80° C. until further analysis. A 4× volume of stop solution (80% ACN/20% water) will be added to the cytosol fraction, supernatant and medium. Samples will be centrifuged at 15,890 g (13,000 rpm) at 4° C. for 10 mins. Supernatant will be collected and stored at −80° C. within 5 days prior to LC-MS/MS analysis. Dosing solutions for each prodrug (10 μM) will be assayed to verify concentration. Cells alone with vehicle will serve as controls to assess background signal for LC-MS/MS. Two independent runs of experiment will be conducted.
Nine fatty acid amide creatine prodrugs were tested in human ARPE-19 cells to assess prodrug uptake and d3-Cr release inside the cells. 50 μM of prodrug was incubated in culture medium with the cells and the cells were harvested at 6 h. Quantitation of prodrugs, d3-Cr (d3-creatine) and d3-Cm (d3-creatinine) in the cytosol fraction was corrected for total protein concentration.

[2] = molecular target: T1, recombinant human FAAH enzyme (rFAAH) (Homo sapiens, UniProt O00519); test: Direct prodrug cleavage with recombinant human FAAH enzyme (rFAAH): d3-Cr release and d3-Crn cyclization; type: biochemical; settings: 200 μM prodrug, 3 h; result in words
T1 sequence (O00519 1-579): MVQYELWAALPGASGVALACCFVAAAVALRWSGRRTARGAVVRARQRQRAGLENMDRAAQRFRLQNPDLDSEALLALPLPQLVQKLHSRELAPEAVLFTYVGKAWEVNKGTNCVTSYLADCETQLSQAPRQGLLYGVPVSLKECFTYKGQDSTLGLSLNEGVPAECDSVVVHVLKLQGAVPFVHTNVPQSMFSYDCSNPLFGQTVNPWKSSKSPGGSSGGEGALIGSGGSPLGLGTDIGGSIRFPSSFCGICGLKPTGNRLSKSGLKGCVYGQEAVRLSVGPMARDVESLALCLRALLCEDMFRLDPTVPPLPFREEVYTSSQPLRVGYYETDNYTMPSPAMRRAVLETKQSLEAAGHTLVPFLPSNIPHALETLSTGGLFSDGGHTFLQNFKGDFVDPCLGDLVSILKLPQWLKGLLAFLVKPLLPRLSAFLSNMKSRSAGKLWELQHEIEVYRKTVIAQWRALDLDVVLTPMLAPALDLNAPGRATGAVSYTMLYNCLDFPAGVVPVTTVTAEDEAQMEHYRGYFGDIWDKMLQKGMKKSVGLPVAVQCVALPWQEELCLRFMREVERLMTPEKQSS
Experimental: (§1) For assessment of the ability of prodrugs to release creatine, and to release creatine preferentially to unwanted cyclization to creatinine, d3-labeled (deuterium labeled methyl group) prodrugs are incubated with brain homogenates (e.g., mouse, human) specially prepared to preserve FAAH activity or with rFAAH for direct cleavage study. The use of d3-labelled prodrugs is essential in order to distinguish prodrug-derived creatine (d3-creatine) from high concentrations of endogenous (non-labeled) creatine. […] Prodrugs are tested at final concentrations of 20 μM and 200 μM. Approximately 3-4 mg of homogenate is used for each reaction. Co-factor (NADPH) is included at a final concentration of 1 mM. FAAH activity is confirmed by conversion of 7-amino-4-methyl Coumarin-Arachidonamide to 7-amino-4-methyl Coumarin by fluorescent assay. Negative controls include incubations without brain homogenate/rFAAH (but with NADPH) or 65° C. heat inactivated brain homogenate/rFAAH to assess non-enzymatic prodrug cleavage under the conditions of the assay and FAAH inhibitor […] at the concentration of 1 μM. Prodrug incubations are prepared by addition of 8 μL of prodrug stock solution (500 or 5000 μM in DMSO or DMSO/methanol) to assay buffered, followed by addition of brain homogenate/rFAAH. […] The samples are centrifuged at 15890×g for 10 minutes at 4° C., followed by transfer of the supernatants for storage at −20° C. pending LC-MS/MS analysis. Sample supernatants are analyzed by LC-MS/MS for determination of d3-prodrug, d3-creatine and d3-creatinine levels.
(§2) Deuterated creatine prodrugs were tested in 3 different in vitro assays to assess d3-creatine (d3-Cr) release and cyclization to form d3-creatinine (d3-Crn). These assays were 1) direct cleavage with recombinant human FAAH enzyme (rFAAH), 2) cleavage in mouse brain homogenates (MBH), and 3) human brain homogenates (HBH).
(§3) Creatine prodrug cleavage efficiency was determined by percentage of net d3-Cr release in μM (positive reaction subtracted from negative control of no brain homogenate/rFAAH or inactivated brain homogenate/rFAAH) over nominal input concentration of 200 μM prodrug at 3 h. Propensity for creatinine cyclization was determined by percentage of d3-Crn generated in μM in positive reaction over nominal input concentration of 200 μM prodrug at 3 h.

[3] = In vivo IV dosing in CrT KO mice: prodrug, d3-Cr and d3-Crn in brain (Table 5); settings: CrT KO mouse brain, BQL prodrug = 41.2 ng/mL
Method in brief: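 CrT KO mice received prodrugs by IV injection at 10, 15 or 25 mg/kg. Brains were collected, flash frozen and homogenized in 100 mM KPI buffer with anti-proteases. Prodrug, d3-Cr and d3-Crn were quantified by LC-MS/MS and expressed as brain concentration (macrocycles) or AUC over time (linear prodrugs).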

[4] = Prodrug cleavage in human brain homogenates (HBH): d3-Cr release and d3-Crn cyclization; type: in vitro ADME; settings: in vitro cleavage assays (Table 3A)
Experimental: as §1, §2, §3

Row | prodrug, Cellular Uptake [1] | Prodrug Cleavage rFAAH d3-Crn release (yes/no) [2] | Prodrug Cleavage rFAAH net d3-Cr release (yes/no) [2] | AUClast prodrug in the brain ([3]; IV 10 mg/kg) | d3-Crn (creatinine) cyclization in vitro (in words) [4] | d3-Crn (creatinine) cyclization in vitro (in words) ([4]; listed as Compound 8) | AUClast prodrug in the brain ([3]; IV 15 mg/kg) | SMILES
1 | BQL | yes | no | BQL | – | – | – | Cl.[2H]C([2H])([2H])N(CC(=O)OCCCCCCC)C(=N)NC(=O)CCCCCCCCCCCC [Compound 11]
2 | – | – | – | – | predominantly creatinine cyclization | predominantly cyclized into creatinine | BQL | Cl.[2H]C([2H])([2H])N(CC(=O)OCC)C(=N)NC(=O)CCCCCCCCCC [Compound 8]
3 | BQL | yes | no | – | – | – | – | Cl.[H]/N=C(/NC(=O)CCCCCCC/C=C\CCCCCCCC)N(CC(=O)OCCCCCCC)C([2H])([2H])[2H] [Compound 2, (Z)-heptyl 2-(1-trideuteriomethyl-3-oleoylguanidino)acetate Hydrochloride]

— patent publication US11332438B2, “Creatine prodrugs, compositions and methods of use thereof” (Ultragenyx Pharmaceutical Inc., priority 2017, dated 2022)
